Source: patent US20090192176A1, “1H-PYRAZOLO[3,4-D]PYRIMIDINE, PURINE, 7H-PURIN-8(9H)-ONE, 3H-[1,2,3]TRIAZOLO[4,5-D]PYRIMIDINE, AND THIENO[3,2-D]PYRIMIDINE COMPOUNDS, THEIR USE AS mTOR KINASE AND PI3 KINASE INHIBITORS, AND THEIR SYNTHESES” (Wyeth, priority 2008, published 2009)

Key:
Human mTOR = target: T1, Human mTOR (Homo sapiens, UniProt P42345); experiment: mTOR kinase assay (DELFIA format, purified enzyme); format: biochemical; conditions: His6-S6K substrate, read-out: TOR Kinase IC50
T1 construct: FLAG
Procedure: mTOR Kinase Assay Methods
Human mTOR assays (See Toral-Barza, et al. Biochem Biophys. Res. Commun. 2005 Jun. 24; 332(1):304-10) with purified enzyme are performed in 96-well plates by DELFIA format as follows. Enzymes are first diluted in kinase assay buffer (10 mM HEPES (pH 7.4), 50 mM NaCl, 50 mM β-glycerophosphate, 10 mM MnCl2, 0.5 mM DTT, 0.25 mM microcystin LR, and […]). To each well, 12 μL of the diluted enzyme is mixed briefly with 0.5 μL test inhibitor or control vehicle dimethylsulfoxide (DMSO). The kinase reaction is initiated by adding 12.5 μL kinase assay buffer containing ATP and His6-S6K to give a final reaction volume of 25 μL containing 800 ng/mL FLAG-TOR, […] and […]. The reaction plate is incubated for 2 hours (linear at 1-6 hours) at room temperature with gentle shaking and then terminated by adding 25 μL Stop buffer (20 mM HEPES (pH 7.4), 20 mM EDTA, 20 mM EGTA). The DELFIA detection of the phosphorylated (Thr-389) His6-S6K is performed at room temperature using a monoclonal anti-P(T389)-p70S6K antibody (1A5, Cell Signaling) labeled with Europium-N1-ITC (Eu) (10.4 Eu per antibody, PerkinElmer). The DELFIA Assay buffer and Enhancement solution can be purchased from PerkinElmer. 45 μL of the terminated kinase reaction mixture is transferred to a MaxiSorp plate (Nunc) containing 55 μL PBS. The His6-S6K is allowed to attach for 2 hours after which the wells are aspirated and washed once with PBS. 100 μL of DELFIA Assay buffer with 40 ng/mL Eu-P(T389)-S6K antibody is added. The antibody binding is continued for 1 hour with gentle agitation. The wells are then aspirated and washed 4 times with PBS containing 0.05% Tween-20 (PBST). 100 μL of DELFIA Enhancement solution is added to each well and the plates are read in a PerkinElmer Victor model plate reader. Data obtained is used to calculate enzymatic activity and enzyme inhibition by potential inhibitors.

PI3 Kinase α = PI3 Kinase α (Homo sapiens, UniProt P42336); experiment: Fluorescence polarization assay for PI3K; format: biochemical
Procedure: (§1) Fluorescence Polarization Assay for PI3K
(§2) This assay is used to determine the IC50 of compounds of the present invention as it identifies inhibitors of PI3 kinase by measuring inhibition.
(§3) Reaction Buffer: 20 mM HEPES, pH 7.5, 2 mM MgCl2, 0.05% CHAPS; and 0.01% BME (added fresh) Stop/Detection Buffer: 100 mM HEPES, pH 7.5, 4 mM EDTA, 0.05% CHAPS; ATP 20 mM in water; PIP2 (diC8, cat# P-4508) 1 mM in water (MW=856.5); GST-GRP 1.75 mg/mL or 1.4 mg/mL in 10% glycerol; Red detector (TAMRA) 2.5 μM; Plate: Nunc 384 well black polypropylene fluorescence plate.
(§4) The assay is run by placing 5 μL of diluted enzyme per well, then 5 μL of diluted compound (or 9.5 μL enzyme then 0.5 μL compound in DMSO) is added and mixed. Then, 10 μL substrate is added to start the reaction. The samples are incubated 30-60 minutes, then the reaction is stopped by adding 20 μL stop/detector mix. PI3K is diluted with reaction buffer (e.g., 5 μL or 7.5 μL PI3K into 620 μL reaction buffer), and 5 μL of diluted enzyme is used per well. 5 μL reaction buffer or drug diluted in buffer (e.g., 4 μL/100 so final DMSO is 1% in reaction) is added to each. Pipetting up and down mixes the samples. Alternatively, the enzyme can be diluted to 1215 μL. In this case 9.8 μL is added per well and 0.2 μL compound is added in DMSO. To prepare 1 mL of substrate solution, 955 μL reaction buffer, 40 μL PIP2, and 2.5 μL ATP are mixed. 10 μL of substrate is added to each well to start the reaction.
(§5) Stop/detector mix is prepared by mixing 4 μL Red detector and 1.6 μL or 2.0 μL GST-GRP with 1 mL Stop buffer, which results in 10 nM probe and 70 nM GST-GRP). 20 μL of the stop/detector mix is added to each well to stop the reaction. The plates are read after 30-90 minutes keeping the red probe solutions dark. For the zero time point, stop/detector mix is added to the enzyme just before adding substrate. For an extra control, stop/detector mix is added to buffer (no enzyme) and substrate or to just buffer (no substrate). […] The recommended reaction has 0.06 μL per 20 μL (0.015 μg/20 μL) or 0.01125 μg/15 μL or 0.75 μg/mL. Plates are read on machines with filters for Tamra. The units are mP with no enzyme controls reading app 190-220 mP units. Fully active enzyme reduces fluorescence polarization down to 70-100 mP after 30 minutes. An active compound raises the mP values halfway to control or to 120-150 mP units.

PI3 Kinase γ = PI3 Kinase γ (Homo sapiens, UniProt P48736); experiment: Fluorescence polarization assay for PI3K; format: biochemical
Procedure: as §1, §2, §3, §4, §5

MDA468 = experiment: In vitro cell culture growth assay (MTS); format: cell-based; conditions: Homo sapiens, 72 h, breast line MDA468, three days after drug treatment
Procedure: In Vitro Cell Culture Growth Assay Methods:
Human tumor cell lines used include prostate lines LNCap and PC3MM2, breast lines MDA468, MCF7, renal line HTB44 (A498), colon line HCT116, and ovarian line OVCAR3. Cells were plated in 96-well culture plates. One day following plating, the inhibitors were added to cells. Three days after drug treatment, viable cell densities were determined by metabolic conversion (by viable cells) of the dye MTS, a well-established cell proliferation assay. The assays were performed using an assay kit purchased from Promega Corp. (Madison, Wis.) following the protocol supplied with the kit. The MTS assay results were read in a 96-well plate reader by measuring absorbance at 490 nm. The effect of each treatment was calculated as percent of control growth relative to the vehicle-treated cells grown in the same culture plate. The drug concentration that conferred 50% inhibition of growth was determined as IC50 (μg/ml).

LNCap = experiment: In vitro cell culture growth assay (MTS); format: cell-based; conditions: Homo sapiens, 72 h, prostate line LNCap, three days after drug treatment
[1] = test system: acute lymphoblastic leukemia; conditions: NOS/SCID xenograft mouse model of acute lymphoblastic leukemia; cited from earlier work

Chain of PI3 Kinase α (P42336 whole entry): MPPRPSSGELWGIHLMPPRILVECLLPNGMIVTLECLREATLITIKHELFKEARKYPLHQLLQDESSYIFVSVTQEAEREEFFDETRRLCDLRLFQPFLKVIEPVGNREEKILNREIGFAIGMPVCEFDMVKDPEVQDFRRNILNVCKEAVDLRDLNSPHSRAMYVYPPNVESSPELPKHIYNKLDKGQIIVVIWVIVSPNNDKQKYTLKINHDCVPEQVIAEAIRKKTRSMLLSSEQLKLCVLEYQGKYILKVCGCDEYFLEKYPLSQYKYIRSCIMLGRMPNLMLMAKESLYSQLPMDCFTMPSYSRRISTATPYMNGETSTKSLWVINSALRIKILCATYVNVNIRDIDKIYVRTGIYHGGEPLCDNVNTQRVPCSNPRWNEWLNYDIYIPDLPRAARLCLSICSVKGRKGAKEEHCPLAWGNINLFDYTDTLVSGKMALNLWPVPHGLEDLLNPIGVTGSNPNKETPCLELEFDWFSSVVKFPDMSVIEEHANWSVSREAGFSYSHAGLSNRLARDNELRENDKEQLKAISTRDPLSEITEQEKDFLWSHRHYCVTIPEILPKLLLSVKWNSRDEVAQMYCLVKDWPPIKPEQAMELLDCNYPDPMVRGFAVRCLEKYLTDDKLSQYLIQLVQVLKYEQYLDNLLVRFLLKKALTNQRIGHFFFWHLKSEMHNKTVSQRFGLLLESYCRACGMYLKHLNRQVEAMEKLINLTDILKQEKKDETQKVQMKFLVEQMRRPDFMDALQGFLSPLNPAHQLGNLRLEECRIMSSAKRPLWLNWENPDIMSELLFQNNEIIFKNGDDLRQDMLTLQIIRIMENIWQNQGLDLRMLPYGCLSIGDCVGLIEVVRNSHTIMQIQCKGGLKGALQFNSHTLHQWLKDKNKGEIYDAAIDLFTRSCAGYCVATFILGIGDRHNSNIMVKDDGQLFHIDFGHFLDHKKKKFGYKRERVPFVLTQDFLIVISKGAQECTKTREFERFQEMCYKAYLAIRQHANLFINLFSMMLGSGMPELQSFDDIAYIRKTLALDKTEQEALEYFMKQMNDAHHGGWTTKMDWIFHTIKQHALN
Chain of PI3 Kinase α (P27986 whole entry partner): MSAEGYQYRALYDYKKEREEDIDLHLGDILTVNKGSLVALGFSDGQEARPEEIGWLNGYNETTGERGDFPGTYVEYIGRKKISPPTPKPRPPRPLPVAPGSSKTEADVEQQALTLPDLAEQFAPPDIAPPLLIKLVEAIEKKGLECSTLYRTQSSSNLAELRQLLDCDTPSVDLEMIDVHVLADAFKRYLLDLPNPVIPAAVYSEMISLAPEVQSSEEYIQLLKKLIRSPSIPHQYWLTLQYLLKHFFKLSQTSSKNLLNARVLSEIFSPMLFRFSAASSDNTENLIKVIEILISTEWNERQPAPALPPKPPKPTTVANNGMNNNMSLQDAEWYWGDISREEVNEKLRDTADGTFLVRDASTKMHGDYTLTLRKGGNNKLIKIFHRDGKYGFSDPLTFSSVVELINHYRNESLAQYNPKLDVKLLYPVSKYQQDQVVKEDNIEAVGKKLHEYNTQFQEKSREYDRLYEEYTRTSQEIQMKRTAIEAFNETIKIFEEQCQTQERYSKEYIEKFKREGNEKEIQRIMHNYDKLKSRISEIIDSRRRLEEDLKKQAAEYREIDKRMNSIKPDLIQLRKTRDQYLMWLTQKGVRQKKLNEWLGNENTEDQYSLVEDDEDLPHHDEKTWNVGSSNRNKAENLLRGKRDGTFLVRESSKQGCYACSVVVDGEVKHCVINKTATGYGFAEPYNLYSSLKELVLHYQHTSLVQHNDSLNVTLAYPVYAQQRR
Chain of PI3 Kinase γ (P48736 whole entry): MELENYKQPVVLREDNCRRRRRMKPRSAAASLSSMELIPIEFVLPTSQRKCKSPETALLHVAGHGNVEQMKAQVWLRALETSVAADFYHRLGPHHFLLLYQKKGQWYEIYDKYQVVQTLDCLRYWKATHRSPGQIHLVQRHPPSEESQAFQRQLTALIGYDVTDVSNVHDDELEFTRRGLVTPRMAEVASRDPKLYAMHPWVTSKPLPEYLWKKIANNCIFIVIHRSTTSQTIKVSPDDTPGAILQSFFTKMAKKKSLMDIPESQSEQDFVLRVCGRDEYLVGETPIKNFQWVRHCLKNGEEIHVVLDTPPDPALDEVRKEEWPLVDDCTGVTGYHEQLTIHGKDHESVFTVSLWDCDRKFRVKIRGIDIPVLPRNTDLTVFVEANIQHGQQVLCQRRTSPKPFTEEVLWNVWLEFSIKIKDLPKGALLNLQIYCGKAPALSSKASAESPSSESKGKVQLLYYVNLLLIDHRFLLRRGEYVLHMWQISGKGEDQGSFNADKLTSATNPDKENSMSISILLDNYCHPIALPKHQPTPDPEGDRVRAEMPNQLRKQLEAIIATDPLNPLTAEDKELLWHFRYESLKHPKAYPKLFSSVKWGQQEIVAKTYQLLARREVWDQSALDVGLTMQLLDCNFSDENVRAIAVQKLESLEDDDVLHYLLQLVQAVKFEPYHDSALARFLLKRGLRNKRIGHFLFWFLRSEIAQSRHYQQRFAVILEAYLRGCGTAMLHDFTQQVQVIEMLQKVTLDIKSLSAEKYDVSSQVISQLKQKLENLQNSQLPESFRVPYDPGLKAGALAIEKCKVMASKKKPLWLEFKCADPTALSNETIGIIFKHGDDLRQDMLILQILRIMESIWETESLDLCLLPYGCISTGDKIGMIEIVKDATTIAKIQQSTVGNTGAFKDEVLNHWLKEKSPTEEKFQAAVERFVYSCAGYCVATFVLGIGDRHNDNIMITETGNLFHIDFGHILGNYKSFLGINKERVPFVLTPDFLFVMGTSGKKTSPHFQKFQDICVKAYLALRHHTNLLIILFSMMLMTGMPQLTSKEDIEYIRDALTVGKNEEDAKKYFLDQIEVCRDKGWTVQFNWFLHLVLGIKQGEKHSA

Structure (SMILES) | IC50 (Human mTOR) | IC50 (PI3 Kinase α) | IC50 (PI3 Kinase γ) | IC50 (MDA468) | IC50 (LNCap) | activity in xenograft model [1]
Oc1cccc(-c2nc(C3=CCOCC3)c3cnn(-c4ccccc4)c3n2)c1 [Compound 1, 3-[4-(3,6-dihydro-2H-pyran-4-yl)-1-phenyl-1H-pyrazolo[3,4-d]pyrimidin-6-yl]phenol] | 17 nM | 48 nM | 1890 nM | 8250 nM | 2800 nM | –
Oc1cccc(-c2nc(C3CCOCC3)c3cnn(-c4ccccc4)c3n2)c1 [Compound 2, 3-[1-phenyl-4-(tetrahydro-2H-pyran-4-yl)-1H-pyrazolo[3,4-d]pyrimidin-6-yl]phenol] | 670 nM | 855 nM | > 10000 nM | 50000 nM | 11000 nM | –
CC(=O)Nc1ccc(-c2nc(C3=CCOCC3)c3cnn(C4CCN(Cc5ccccc5)CC4)c3n2)cc1 [Compound 3, N-{4-[1-(1-benzylpiperidin-4-yl)-4-(3,6-dihydro-2H-pyran-4-yl)-1H-pyrazolo[3,4-d]pyrimidin-6-yl]phenyl}acetamide] | 230 nM | 3090 nM | 3020 nM | 11000 nM | 5000 nM | –
CNC(=O)Nc1ccc(-c2nc(C3=CCOCC3)c3cnn(C4CCN(Cc5cccnc5)CC4)c3n2)cc1 [Compound 4, 1-(4-{4-(3,6-dihydro-2H-pyran-4-yl)-1-[1-(pyridin-3-ylmethyl)piperidin-4-yl]-1H-pyrazolo[3,4-d]pyrimidin-6-yl}phenyl)-3-methylurea] | 17 nM | 2820 nM | 3220 nM | 4200 nM | 900 nM | –
CNC(=O)Nc1ccc(-c2nc(C3=CCOCC3)c3cnn(C4CCN(C(=O)c5cccnc5)CC4)c3n2)cc1 [Compound 5, 1-(4-{4-(3,6-dihydro-2H-pyran-4-yl)-1-[1-(pyridin-3-ylcarbonyl)piperidin-4-yl]-1H-pyrazolo[3,4-d]pyrimidin-6-yl}phenyl)-3-methylurea] | 8.4 nM | 2100 nM | 1180 nM | 4000 nM | 2800 nM | –
CNC(=O)Nc1ccc(-c2nc(C3=CCOCC3)c3cnn(CC(F)(F)F)c3n2)cc1 [Compound 6, 1-{4-[4-(3,6-dihydro-2H-pyran-4-yl)-1-(2,2,2-trifluoroethyl)-1H-pyrazolo[3,4-d]pyrimidin-6-yl]phenyl}-3-methylurea] | 2.4 nM | 212 nM | 3030 nM | 950 nM | 260 nM | –
O=C(NCCF)Nc1ccc(-c2nc(C3=CCOCC3)c3cnn(CC(F)(F)F)c3n2)cc1 [Compound 7, 1-{4-[4-(3,6-dihydro-2H-pyran-4-yl)-1-(2,2,2-trifluoroethyl)-1H-pyrazolo[3,4-d]pyrimidin-6-yl]phenyl}-3-(2-fluoroethyl)urea] | 1.4 nM | 2330 nM | 1010 nM | 220 nM | 72 nM | –
O=C(Nc1ccc(-c2nc(C3=CCOCC3)c3cnn(CC(F)(F)F)c3n2)cc1)Nc1cccnc1 [Compound 8, 1-{4-[4-(3,6-dihydro-2H-pyran-4-yl)-1-(2,2,2-trifluoroethyl)-1H-pyrazolo[3,4-d]pyrimidin-6-yl]phenyl}-3-pyridin-3-ylurea] | 0.75 nM | 66 nM | > 10000 nM | 7000 nM | 380 nM | –
O=C(Nc1ccccc1)Nc1ccc(-c2nc(C3=CCOCC3)c3cnn(CC(F)(F)F)c3n2)cc1 [Compound 9, 1-{4-[4-(3,6-dihydro-2H-pyran-4-yl)-1-(2,2,2-trifluoroethyl)-1H-pyrazolo[3,4-d]pyrimidin-6-yl]phenyl}-3-phenylurea] | 2.6 nM | 43 nM | 74 nM | 230 nM | 96 nM | –
CCNC(=O)Nc1ccc(-c2nc(C3=CCOCC3)c3cnn(CC(F)(F)F)c3n2)cc1 [Compound 10, 1-{4-[4-(3,6-dihydro-2H-pyran-4-yl)-1-(2,2,2-trifluoroethyl)-1H-pyrazolo[3,4-d]pyrimidin-6-yl]phenyl}-3-ethylurea] | 2.4 nM | 851 nM | > 10000 nM | 680 nM | 210 nM | –
O=C(Nc1ccc(-c2nc(C3=CCOCC3)c3cnn(CC(F)(F)F)c3n2)cc1)OCCO [Compound 10a, 2-hydroxyethyl {4-[4-(3,6-dihydro-2H-pyran-4-yl)-1-(2,2,2-trifluoroethyl)-1H-pyrazolo[3,4-d]pyrimidin-6-yl]phenyl}carbamate] | 3550 nM | 696 nM | 3360 nM | 1200 nM | 170 nM | –
O=c1[nH]c2nc(-c3cccc(O)c3)nc(C3=CCOCC3)c2[nH]1 [Compound 67, 6-(3,6-dihydro-2H-pyran-4-yl)-2-(3-hydroxyphenyl)-7,9-dihydro-8H-purin-8-one] | 280 nM | 169 nM | 414 nM | > 10000 nM | – | –
CO[C@H]1C[C@@H]2CC[C@@H](C)[C@@](O)(O2)C(=O)C(=O)N2CCCC[C@H]2C(=O)O[C@H]([C@H](C)C[C@@H]2CC[C@@H](OC(=O)C(C)(CO)CO)[C@H](OC)C2)CC(=O)[C@H](C)/C=C(\C)[C@@H](O)[C@@H](OC)C(=O)[C@H](C)C[C@H](C)/C=C/C=C/C=C/1C [Torisel] | – | – | – | – | – | active
